Measured values taken from PMC9750858, “Rapid biosensor development using plant hormone receptors as reprogrammable scaffolds” (Nature Biotechnology, 2022).
Several values for one entry are separate records, joined by “and”; a condition that tells them apart may be missing. Identical values can stand only once.

Columns and labels:
PYR1^WIN-M = biological target: T1, PYR1^WIN-M (Arabidopsis thaliana, UniProt O49686, A160I/D26G/E4G/F159A/H60P/K59Q/N90S/Y23H); assay: ELISA-like plate assay, immobilized PYR1^WIN-M, biotinylated ΔN-HAB1^T+; format: binding; conditions: replicates
T1 construct: made in house
T1 sequence (O49686 with tags, fused parts or gaps E4G/Y23H/D26G/K59Q/H60P/N90S/F159A/A160I): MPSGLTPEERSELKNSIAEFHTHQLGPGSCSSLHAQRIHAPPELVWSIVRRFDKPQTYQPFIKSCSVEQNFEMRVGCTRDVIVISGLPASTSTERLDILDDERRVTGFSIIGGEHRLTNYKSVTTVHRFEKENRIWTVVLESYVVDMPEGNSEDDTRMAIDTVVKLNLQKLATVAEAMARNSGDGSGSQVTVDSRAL

PYR1^PIRI = biological target: T2, PYR1^PIRI (Arabidopsis thaliana, UniProt O49686, A160T/E130G/F159T/K59R/N119S/S122Q/S92M/V174A); assay: Split NanoLuc luciferase complementation in yeast, NLuc^N-PYR1^PIRI/NLuc^C-HAB1; format: cell-based; conditions: Figure 4f(bottom), replicates
T2 construct: >PYR1-PIRI; expressed in transfected cells; host or cells: Saccharomyces cerevisiae BY4742

PYR1^DIAZI = PYR1^DIAZI (Arabidopsis thaliana, UniProt O49686, A160V/E8G/F108Y/F159G/L87M/M158V/V81Y); assay: Split NanoLuc luciferase complementation in yeast, NLuc^N-PYR1^DIAZI/NLuc^C-HAB1; format: cell-based; design: >PYR1-DIAZI; expressed in transfected cells; host or cells: Saccharomyces cerevisiae BY4742; conditions: Figure 4f(top), 3 replicates
Sequence of PYR1^DIAZI (Q9CAJ0 179-511): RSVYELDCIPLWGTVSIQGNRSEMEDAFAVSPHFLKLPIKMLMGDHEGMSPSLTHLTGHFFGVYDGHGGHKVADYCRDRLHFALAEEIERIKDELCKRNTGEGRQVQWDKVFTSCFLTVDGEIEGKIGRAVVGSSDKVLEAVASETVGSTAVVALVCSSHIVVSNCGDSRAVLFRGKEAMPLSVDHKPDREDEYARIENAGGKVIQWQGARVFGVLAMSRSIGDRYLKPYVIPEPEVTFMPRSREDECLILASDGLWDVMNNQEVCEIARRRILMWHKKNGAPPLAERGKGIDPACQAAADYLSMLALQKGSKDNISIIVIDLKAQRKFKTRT
Sequence of PYR1^DIAZI (O49686 other isoform, or with tags, fused parts or gaps E8G/V81Y/L87M/F108Y/M158V/F159G/A160V): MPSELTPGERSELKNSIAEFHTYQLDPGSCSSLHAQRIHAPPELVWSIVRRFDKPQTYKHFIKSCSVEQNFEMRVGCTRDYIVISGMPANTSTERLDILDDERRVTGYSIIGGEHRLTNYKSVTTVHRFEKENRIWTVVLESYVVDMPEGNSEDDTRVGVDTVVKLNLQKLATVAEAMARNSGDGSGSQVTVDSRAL

T2 sequence (O49686 other isoform, or with tags, fused parts or gaps K59R/S92M/N119S/S122Q/E130G/F159T/A160T/V174A): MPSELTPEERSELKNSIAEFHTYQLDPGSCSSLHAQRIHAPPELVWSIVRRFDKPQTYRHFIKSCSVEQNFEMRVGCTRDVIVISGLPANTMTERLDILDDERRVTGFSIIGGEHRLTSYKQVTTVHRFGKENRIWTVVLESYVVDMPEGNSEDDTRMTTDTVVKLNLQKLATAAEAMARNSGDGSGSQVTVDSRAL
T2 sequence (Q9CAJ0 179-511, further chain): as the sequence (Q9CAJ0 179-511) above

## O=C(Nc1cccc2cccnc12)c1cn(CCCCCF)c2ccccc12 [AM2201, AM2201 8-quinolinyl carboxamide]
PYR1^WIN-M; cannabinoid at 2 nM
  ELISA signal generation, receptor cross-reactivity (source data): 0.169 and 0.127 and 0.144
PYR1^WIN-M; cannabinoid at 2 μM
  ELISA signal generation, receptor cross-reactivity (source data): 0.112 and 0.114 and 0.096

## C=C(C)[C@@H]1CCC(C)=C[C@H]1c1c(O)cc(CCCCC)cc1O [Cannabidiol]
PYR1^WIN-M; cannabinoid at 2 nM
  ELISA signal generation, receptor cross-reactivity (source data): 0.109 and 0.094 and 0.096
PYR1^WIN-M; cannabinoid at 2 μM
  ELISA signal generation, receptor cross-reactivity (source data): 0.095 and 0.093 and 0.084

## CCOP(=S)(OCC)Oc1ccc2c(C)c(Cl)c(=O)oc2c1 [Coumaphos]
PYR1^PIRI; [Agonist] 1e-5 nM
  Sensor signal (Figure 4f bottom), replicate values: 11.6429 and 18.6581 and 9.869
PYR1^PIRI; [Agonist] 0.5 nM
  Sensor signal (Figure 4f bottom), replicate values: 10.5853 and 39.7892 and 9.475
PYR1^PIRI; [Agonist] 1 nM
  Sensor signal (Figure 4f bottom), replicate values: 12.0486 and 19.9282 and 8.797
PYR1^PIRI; [Agonist] 10 nM
  Sensor signal (Figure 4f bottom), replicate values: 7.164 and 12.4287 and 9.583
PYR1^PIRI; [Agonist] 100 nM
  Sensor signal (Figure 4f bottom), replicate values: 8.8955 and 12.6369 and 17.1023
PYR1^PIRI; [Agonist] 1000 nM
  Sensor signal (Figure 4f bottom), replicate values: 9.4868 and 11.2169 and 22.673
PYR1^PIRI; [Agonist] 10000 nM
  Sensor signal (Figure 4f bottom), replicate values: 12.3815 and 19.3959 and 83.5281
PYR1^PIRI; [Agonist] 100000 nM
  Sensor signal (Figure 4f bottom), replicate values: 9.584 and 13.286 and 71.6379
PYR1^DIAZI; [Agonist] 1e-5 nM
  Sensor signal (Figure 4f top), replicate values: 16.388 and 9.752 and 14.788
PYR1^DIAZI; [Agonist] 0.5 nM
  Sensor signal (Figure 4f top), replicate values: 30.8829 and 12.1724 and 17.852
PYR1^DIAZI; [Agonist] 1 nM
  Sensor signal (Figure 4f top), replicate values: 36.8131 and 33.8683 and 15.2635
PYR1^DIAZI; [Agonist] 10 nM
  Sensor signal (Figure 4f top), replicate values: 15.4966 and 64.9896 and 15.1391
PYR1^DIAZI; [Agonist] 100 nM
  Sensor signal (Figure 4f top), replicate values: 12.996 and 65.6413 and 15.942
PYR1^DIAZI; [Agonist] 1000 nM
  Sensor signal (Figure 4f top), replicate values: 21.5139 and 73.8437 and 25.5745
PYR1^DIAZI; [Agonist] 10000 nM
  Sensor signal (Figure 4f top), replicate values: 81.7848 and 47.8146 and 79.9027
PYR1^DIAZI; [Agonist] 100000 nM
  Sensor signal (Figure 4f top), replicate values: 105.044 and 22.805 and 29.2791

## CCCCCn1cc(C(=O)c2cccc3ccccc23)cc1-c1ccccc1 [JWH-145]
PYR1^WIN-M; cannabinoid at 2 nM
  ELISA signal generation, receptor cross-reactivity (source data): 0.469 and 0.077 and 0.091
PYR1^WIN-M; cannabinoid at 2 μM
  ELISA signal generation, receptor cross-reactivity (source data): 0.105 and 0.116 and 0.1

## CCCCCn1cc(C(=O)Cc2ccccc2)c2ccccc21 [JWH-167]
PYR1^WIN-M; cannabinoid at 2 nM
  ELISA signal generation, receptor cross-reactivity (source data): 0.146 and 0.078 and 0.09
PYR1^WIN-M; cannabinoid at 2 μM
  ELISA signal generation, receptor cross-reactivity (source data): 0.075 and 0.092 and 0.077

## CCCc1ccc(C(=O)c2cn(CCC)c3ccccc23)c2ccccc12 [JWH-180]
PYR1^WIN-M; cannabinoid at 2 nM
  ELISA signal generation, receptor cross-reactivity (source data): 0.104 and 0.071 and 0.083
PYR1^WIN-M; cannabinoid at 2 μM
  ELISA signal generation, receptor cross-reactivity (source data): 0.08 and 0.088 and 0.087

## Cc1ccc(C(=O)c2cn(CCN3CCOCC3)c3ccccc23)c2ccccc12 [JWH-193]
PYR1^WIN-M; cannabinoid at 2 nM
  ELISA signal generation, receptor cross-reactivity (source data): 0.065 and 0.104 and 0.068
PYR1^WIN-M; cannabinoid at 2 μM
  ELISA signal generation, receptor cross-reactivity (source data): 0.07 and 0.084 and 0.11
